Source: US6653478B2, “Substituted benzimidazol-2-ones as vasopressin receptor antagonists and neuropeptide Y modulators” (Ortho-McNeil Pharmaceutical, Inc., priority 2000, dated 2003)
Structures can show the parent of a compound that is named as a salt.

How the values were obtained:
[1] = target: human V2 receptor (Homo sapiens, UniProt P30518); experiment: V2 binding assay (3H-AVP displacement, HEK-293 membranes); set-up: expressed in transfected cells; host or cells: HEK-293 (membranes); settings: for inhibition at 1 µM: 1.0 μM compound, read-out: V2@1.0, % Inh
Summary of the method: (§1)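 Read-out is filter-retained 3H-AVP, counted by scintillation after washing with cold saline/0.05% Tween 20. Binding ran 1 hour at room temperature in pH 7.5 buffer with protease inhibitors; 1.25 μM unlabelled AVP gave non-specific binding.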

[2] = target: T1, human V1b receptor (Homo sapiens, UniProt P47901); experiment: V1b binding assay (3H-AVP displacement, HEK-293 membranes); set-up: expressed in transfected cells; host or cells: HEK-293 (membranes); settings: for inhibition at 10 µM: 10 μM compound, read-out: V1b % Inh @10; for inhibition at 1 µM: 1.0 μM compound, read-out: V1b@1.0, % Inh
T1 sequence (P47901 1-424): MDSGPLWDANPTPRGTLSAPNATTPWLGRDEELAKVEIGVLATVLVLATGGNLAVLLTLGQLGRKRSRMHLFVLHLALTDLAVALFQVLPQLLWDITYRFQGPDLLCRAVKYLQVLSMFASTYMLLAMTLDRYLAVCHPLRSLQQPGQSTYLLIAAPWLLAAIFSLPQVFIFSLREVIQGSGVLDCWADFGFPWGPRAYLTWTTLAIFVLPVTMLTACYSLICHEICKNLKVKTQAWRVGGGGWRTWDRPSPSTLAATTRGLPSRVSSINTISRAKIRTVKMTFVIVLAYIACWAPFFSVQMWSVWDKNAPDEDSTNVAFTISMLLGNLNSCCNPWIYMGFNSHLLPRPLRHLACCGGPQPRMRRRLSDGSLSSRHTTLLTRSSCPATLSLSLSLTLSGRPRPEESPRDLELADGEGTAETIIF
Summary of the method: as §1

[3] = target: T2, human V1a receptor (Homo sapiens, UniProt P37288); experiment: V1a functional assay, intracellular calcium mobilization in transfected HEK-293 cells (FLIPR); set-up: expressed in transfected cells; host or cells: HEK-293; settings: challenge 1 nM AVP; read-out: Cell-Based Functional activity V1a IC50
Description: (§2) V1a, V1b or V2 Functional Assay
(§3) HEK-293 cells were grown in DMEM media supplemented with 10% FBS and glutamine (Gibco BRL, Grand Island, N.Y.). Once transfected the cells were passed biweekly by trypsinization and seeded into 96 well plates at 33,000 cells per well. HEK-293 were transfected with human V1a, V1b or V2 DNA using DMRIE-C reagent from Life Technologies, Inc., Grand Island, N.Y. Cells were tested for their responsiveness to vasopressin 48 hours after transfection. Stable lines were generated by selecting cells grown in culture media containing geneticin (500 μg/ml, Life Technologies).
(§4) Intracellular calcium mobilization was measured in HEK-293 cells transfected to express either human V1a, oxytocin or V1b receptors. Cells were plated into black 96-well Packard Clear-View plates 4 to 7 days prior to use. The cells were loaded with fluo-3 AM (Molecular Probes, Inc., Eugene, Oreg.) in buffer (25 mM Hepes, 125 mM NaCl, 1 gm/l glucose, 0.1% BSA, 5 mM KCl, 0.5 mM CaCl2, 0.5 mM MgCl2, pH 7.45) containing Pluronic (Molecular Probes) Cells were incubated with 5 μM fluo-3 AM for 1 hour shielded from light at room temperature. Intracellular fluorescence was measured using FLIPR (fluorometric imaging plate reader; Molecular Devices, Inc., Sunnyvale, Calif.). The FLIPR protocol called for images to be collected at one second intervals with 50 μl of the test compound added after the initial 10 images. An additional 70 images were then taken to detect any compound agonistic activity. FLIPR then added 50 μl of agonist peptide and collected a final 40 images for quantitating compound antagonistic activity. V1a- and V1b-expressing HEK cells were challenged with 1 nM and 0.5 nM AVP, respectively. Oxytocin-expressing HEK cells were challenged with 0.5 nM oxytocin (Peninsula Labs).
(§5) The data from the cAMP accumulation and the calcium mobilization assays are expressed as IC50 values as determined from dose response curves.

[4] = target: T1, human V1b receptor; experiment: V1b functional assay, intracellular calcium mobilization in transfected HEK-293 cells (FLIPR); format: cell-based; set-up: expressed in transfected cells; host or cells: HEK-293; settings: for IC50: challenge 0.5 nM AVP, read-out: Cell-Based Functional activity V1b IC50
Description: as §2, §3, §4, §5

[5] = target: T2, human V1a receptor; experiment: V1a binding assay (3H-AVP displacement, HEK-293 membranes); set-up: expressed in transfected cells; host or cells: HEK-293 (membranes); settings: for inhibition at 1 µM: 1.0 μM compound, read-out: V1a@1.0, % Inh
Summary of the method: as §1

[6] = target: T3, NPY2 receptors (Homo sapiens, UniProt P49146); experiment: Neuropeptide Y receptor binding assay (125I-PYY, KAN-TS cell membranes); settings: 10 μM compound; read-out: NPY-2@10, % Inh
T3 construct: Cell Membranes from KAN-TS cells having NPY2 receptors; endogenous in cells; host or cells: KAN-TS cells (membranes)
T3 sequence (P49146 1-381): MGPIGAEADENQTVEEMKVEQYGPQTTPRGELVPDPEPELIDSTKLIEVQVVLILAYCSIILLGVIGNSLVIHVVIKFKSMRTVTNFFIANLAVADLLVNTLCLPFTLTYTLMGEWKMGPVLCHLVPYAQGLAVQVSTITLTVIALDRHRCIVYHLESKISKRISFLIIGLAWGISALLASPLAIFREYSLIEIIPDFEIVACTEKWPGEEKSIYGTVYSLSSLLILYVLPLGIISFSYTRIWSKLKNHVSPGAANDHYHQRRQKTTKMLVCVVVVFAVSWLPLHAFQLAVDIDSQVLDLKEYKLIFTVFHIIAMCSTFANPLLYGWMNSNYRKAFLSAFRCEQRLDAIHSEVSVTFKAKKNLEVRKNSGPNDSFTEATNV
Summary of the method: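 Membranes from KAN-TS cells competed with 125I-PYY in binding buffer containing BSA, test compound at 10 μM final, 1 hr at room temperature. Nonspecific binding defined with 1 μM PYY final. Tubes centrifuged, washed with PBS and bound radioactivity gamma-counted.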

Chain of human V2 receptor (P30518 whole entry): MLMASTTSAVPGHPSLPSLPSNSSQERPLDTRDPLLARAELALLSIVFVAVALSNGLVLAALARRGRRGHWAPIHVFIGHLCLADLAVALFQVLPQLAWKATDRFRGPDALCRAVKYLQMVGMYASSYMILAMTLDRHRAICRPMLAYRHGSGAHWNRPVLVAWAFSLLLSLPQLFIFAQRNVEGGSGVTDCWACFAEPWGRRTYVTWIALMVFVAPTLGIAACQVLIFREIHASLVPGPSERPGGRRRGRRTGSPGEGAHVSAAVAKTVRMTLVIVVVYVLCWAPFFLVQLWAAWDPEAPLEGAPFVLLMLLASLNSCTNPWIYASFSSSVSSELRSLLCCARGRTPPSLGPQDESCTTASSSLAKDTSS
T2 sequence (P37288 whole entry): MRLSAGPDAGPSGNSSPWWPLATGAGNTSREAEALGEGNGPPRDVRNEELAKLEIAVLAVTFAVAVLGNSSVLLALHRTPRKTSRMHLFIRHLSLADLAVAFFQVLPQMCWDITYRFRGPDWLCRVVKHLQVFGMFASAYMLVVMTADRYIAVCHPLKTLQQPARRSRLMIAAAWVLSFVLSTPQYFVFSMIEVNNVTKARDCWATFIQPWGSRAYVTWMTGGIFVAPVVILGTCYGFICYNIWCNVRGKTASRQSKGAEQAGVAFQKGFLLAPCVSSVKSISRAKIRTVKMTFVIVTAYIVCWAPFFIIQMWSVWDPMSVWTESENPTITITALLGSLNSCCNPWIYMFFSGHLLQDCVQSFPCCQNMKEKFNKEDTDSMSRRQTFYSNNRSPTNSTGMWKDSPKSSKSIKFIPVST

In the case of `NCCn1c(=O)n(C2CCN(C(=S)NC(c3ccccc3)c3ccccc3)CC2)c2ccccc21` [Compound 63, 1-[(N1-Piperidinocarbothioyldiphenylmethylamino)-4-yl]-3-(2-aminoethyl)-1,3-dihydrobenzimidazol-2-one Hydrochloride], the inhibition at 1 µM [1] is reported as 42%, the IC50 [2] is reported as 4.7 µM and the inhibition at 10 µM [2] is reported as 74%. It also gave an IC50 [3] of 0.31 µM, an IC50 [4] of 8.06 µM and an IC50 [5] of 0.05 µM. It also gave an inhibition at 10 µM [6] of 94%.

With `NCCCn1c(=O)n(C2CCN(C(=S)NC(c3ccccc3)c3ccccc3)CC2)c2ccccc21` (as salt: hydrochloride) [Compound 55, 1-[(N1-Piperidinocarbothioyldiphenylmethylamino)-4-yl]-3-(3-aminopropyl)-1,3-dihydrobenzimidazol-2-one Monohydrochloride] the melting point was 189 to 190 °C.

With `NCCCCn1c(=O)n(C2CCN(C(=S)NC(c3ccccc3)c3ccccc3)CC2)c2ccccc21` [Compound 64, 1-[(N1-Piperidinocarbothioyldiphenylmethylamino)-4-yl]-3-(4-aminobutyl)-1,3-dihydro-benzimidazol-2-one] the IC50 [1] was 0.56 µM, the IC50 [2] was 5.4 µM and the IC50 [3] was 0.14 µM. It also gave an IC50 [4] of 12.1 µM, an IC50 [5] of 0.024 µM and an inhibition at 10 µM [6] of 93%.

`O=c1[nH]c2ccccc2n1C1CCN(C(=S)NCc2cccc3ccccc23)CC1` [Compound 15] showed an inhibition at 1 µM [1] of 10%, an inhibition at 10 µM [2] of 7% and an inhibition at 1 µM [5] of 17%. It also gave an inhibition at 10 µM [6] of 14%.

Molecule `O=c1n(CCCCN2CCCC2)c2ccccc2n1C1CCN(C(=S)NC(c2ccccc2)c2ccccc2)CC1` [Compound 104] has an inhibition at 1 µM [1] of 14%, an inhibition at 1 µM [2] of 48% and an IC50 [5] of 0.018 µM. It also gave an inhibition at 10 µM [6] of 96%.

Work on `NCCCn1c(=O)n(C2CCN(C(=O)Nc3ccccc3-c3ccccc3)CC2)c2ccccc21` [Compound 62, 1-[(N1-Piperidinocarboyl-2-biphenylylamino)-4-yl]-3-(3-aminopropyl)-1,3-dihydro-benzimidazol-2-one hydrochloride] yielded an inhibition at 1 µM [1] of 0%, an inhibition at 10 µM [2] of 35% and an IC50 [3] of 0.69 µM. The inhibition at 30 µM ([4]; HEK293, 30 μM compound, read-out: Cell-Based Functional activity V1b % Inh. @ 30) was 0%, the IC50 [5] was 0.2 µM and the inhibition at 10 µM [6] was 50%.

`CC1CCN(CCCn2c(=O)n(C3CCN(C(=S)NC(c4ccccc4)c4ccccc4)CC3)c3ccccc32)CC1` [Compound 113, 1-[(N1-piperidinocarbothioylbiphenylmethylamino)-4-yl]-3-(4-methylpiperidin-1-yl-propyl)-1,3-dihydrobenzimidazol-2-one] showed an inhibition at 1 µM [1] of 7%, an inhibition at 1 µM [2] of 47% and an IC50 [5] of 0.023 µM. For the same molecule, the inhibition at 1 µM [5] was 70% and the inhibition at 10 µM [6] was 89%.

For `CCCN(CCC)CCCn1c(=O)n(C2CCN(C(=S)NC(c3ccccc3)c3ccccc3)CC2)c2ccccc21` [Compound 79, 1-[(N1-piperidinocarbothioylbiphenylmethylamino)-4-yl]-3-(3-N,N-dipropylaminopropyl)-1,3-dihydrobenzimidazol-2-one], the inhibition at 1 µM [1] was 13%, the inhibition at 1 µM [2] was 48% and the IC50 [5] was 0.016 µM. For the same molecule, the inhibition at 10 µM [6] was 80%.

Molecule `CC(=O)NCCCn1c(=O)n(C2CCN(C(=S)NC(c3ccccc3)c3ccccc3)CC2)c2ccccc21` [Compound 76, 1-[(N1-Piperidinocarbothioyldiphenylmethylamino)-4-yl]-3-(3-acetamidopropyl)-1,3-dihydrobenzimidazol-2-one] has an inhibition at 1 µM [1] of 0%, an inhibition at 10 µM [2] of 25% and an IC50 [5] of 0.25 µM. The inhibition at 10 µM [6] was 41%.

With `CN(CCCn1c(=O)n(C2CCN(C(=S)NC(c3ccccc3)c3ccccc3)CC2)c2ccccc21)C1CCCCC1` [Compound 98, 1-[(N1-piperidinocarbothioylbiphenylmethylamino)-4-yl]-3-(3-N,N-methylcyclohexylaminopropyl)-1,3-dihydrobenzimidazol-2-one] the inhibition at 1 µM [1] was 0%, the IC50 [2] was 0.179 µM and the IC50 [5] was 0.022 µM. The inhibition at 10 µM [6] was 85%.

For `O=c1n(CCCN2CCCC2)c2ccccc2n1C1CCN(C(=S)NC(c2ccccc2)c2ccccc2)CC1` [Compound 73, 1-[(N1-piperidinocarbothioylbenzhydrylamino)-4-yl]-3-(3-N-pyrrolidinopropyl)-1,3-dihydro-benzimidazol-2-one], the inhibition at 1 µM [1] was 0%, the IC50 [2] was 0.3 µM and the IC50 [5] was 0.016 µM. For the same molecule, the inhibition at 10 µM [6] was 89%.

Work on `COc1cc(CNC(=S)N2CCC(n3c(=O)[nH]c4ccccc43)CC2)cc(OC)c1OC` [Compound 20] yielded an inhibition at 1 µM [1] of 0%, an inhibition at 10 µM [2] of 0% and an inhibition at 10 µM ([5]; 10 μM compound, read-out: V1a % Inh @10) of 25%. The inhibition at 10 µM [6] was 12%.

`O=C(NC(=S)N1CCC(n2c(=O)[nH]c3ccccc32)CC1)c1ccccc1` [Compound 8] gave an inhibition at 1 µM [1] of 10%, an inhibition at 10 µM [2] of 13% and an inhibition at 1 µM [5] of 55%. It also gave an inhibition at 10 µM [6] of 5%.

With `O=C(NC(c1ccccc1)(c1ccccc1)c1ccccc1)N1CCC(n2c(=O)n(CCCN3CCCCC3)c3ccccc32)CC1` [Compound 120, 1-[(N1-piperidinocarbonyltriphenylmethylamino)-4-yl]-3-(3-N-piperidinylpropyl)-1,3-dihydrobenzimidazol-2-one] the inhibition at 1 µM [1] was 20%, the inhibition at 1 µM [2] was 25% and the inhibition at 1 µM [5] was 20%. The inhibition at 10 µM [6] was 100%.

Molecule `O=c1n(CCCN2CCCCC2)c2ccccc2n1C1CCN(C(=S)NC(c2ccccc2)c2ccccc2)CC1` [Compound 81, 1-[(N1-piperidinocarbothioylbiphenylmethylamino)-4-yl]-3-(3-N-piperidinylpropyl)-1,3-dihydrobenzimidazol-2-one] has an inhibition at 1 µM [1] of 18%, an IC50 [2] of 0.076 µM and an IC50 [5] of 0.004 µM. It also gave an inhibition at 10 µM [6] of 89%.

For `NCCCCn1c(=O)n(C2CCN(C(=S)NC(c3ccccc3)c3ccc(Cl)cc3)CC2)c2ccccc21` (centres unmarked) [Compound 65, 1-[(N1-Piperidinocarbothioyl-4-chlorodiphenylmethylamino)-4-yl]-3-(4-aminobutyl)-1,3-dihydro-benzimidazol-2-one], the IC50 [1] was 0.5 µM, the inhibition at 10 µM [2] was 51% and the IC50 [3] was 0.46 µM. The IC50 [4] was 21 µM, the IC50 [5] was 0.077 µM and the inhibition at 10 µM [6] was 51%.
